Legend:
[1] = tested on: PBMC; assay: PBMC proliferation, BrdU incorporation; type: cell-based, human; conditions: Homo sapiens; ConA-stimulated PBMC, BrdU uptake; nM ± SD; read-out: IC50 PBMC proliferation inhibition
Description: Blood samples were taken from healthy donors and loaded on a Ficoll density gradient to purify the PBMC population. T cells were purified by human anti-CD3 using an autoMACS instrument (Miltenyi Biotec, Bergisch-Gladbach, Germany), according to the manufacturer's instructions. The identity of T cells was confirmed by flow cytometry, as they stained positive for CD3. Cells were stimulated with ConA (10 μg/ml), ODN2006 (0.5 μg/ml; Enzo Life Sciences), or LPS (50 μg/ml; Sigma-Aldrich, Steinheim, Germany), for 72 h in the presence of the inhibitor, and their proliferation was measured in the BrdU incorporation assay as will be later described.
(§1) Cells were depleted of fetal calf serum (FCS) for 12 hours. They were then stimulated to proliferate by addition of ConA (10 μg/ml) for PBMC from healthy individuals and for Jurkat cells, FCS (10%) for HEK293 and A375 cells, PDGF (30 ng/ml) for NIH 3T3 cells, and EGF (30 ng/ml) for MDA-MB-231, Cells (1×10^5) were cultured in 96-well plates for 3 days in the presence or absence of inhibitors at the concentrations specified in the text. Each condition was tested in duplicate wells.
(§2) Proliferation was assessed by BrdU incorporation using a colorimetric ELISA kit (Roche, Germany). Subsequent to labeling with 10 μM BrdU, DNA was denatured and the cells were incubated with anti-BrdU-POD, prior to the addition of colorimetric substrate (TMB). The reaction product was quantified by measuring absorbance at 450 nm in an ELISA plate reader (ELx800 BIO-TEK Instruments Inc.).
(§3) Since we were not prejudiced towards any specific protein kinase, we used a biological assay for T cell proliferation. We tested our libraries for inhibition of proliferation of PBMC and Jurkat cells (Table 3). Cell proliferation was measured by BrdU uptake. […] PBMC cells were stimulated by a non-specific T cell mitogen, Concanavalin A (ConA). All of the compounds that were tested inhibited proliferation at micromolar or sub-micromolar concentrations.

[2] = tested on: Jurkat cells; assay: Jurkat cell proliferation, BrdU incorporation; type: cell-based, human; conditions: Homo sapiens, Jurkat, BrdU uptake; nM ± SD; read-out: IC50 Jurkat cells proliferation inhibition
Description: as §1, §2, §3

[3] = tested on: 2C (stimulated) cells; assay: MLR with resting control cells, stimulated 2C cells; type: cell-based, mouse; conditions: 0.5 μM, 72 h MLR with IL-7; no inhibitor 3805
Source text: (§4) The aim of this test was to determine whether 2 affects only the proliferating cells or there is a general mechanism affecting all cell numbers. For this purpose we mixed 3 cell types: […]: BALB/c, 2C and OT1; […]: CB6F1, TEA and OT2. The OT1 and OT2 are splenocytes that were isolated from OT1 and OT2 mice (Jackson Laboratories, Bar Harbor, Me.),
(§5) Thus, the ability to monitor the fate of proliferation and resting cells by FACS was enabled due to the use of the MLR described above for CD4+ and CD8+ and the addition of OT2 and OT1 splenocytes, respectively.
(§6) Proliferating cells often secrete cytokines that induce survival of neighbouring cells; since the proliferation was expected to be inhibited we added 50 ng/ml of IL-7. This concentration is sufficient to keep the cells alive, but not to induce proliferation.
(§7) Irradiated Balb splenocytes were incubated for 72 h with 2C, and OT1 splenocytes in the presence of IL-7 W/O inhibitor.
(§8) The CD4+ and CD8+ were stimulated to proliferate, whereas in the absence of specific stimuli the OT1 and OT2 cell populations were resting, and theses cells were kept alive by the administration of IL-7. […] The number of 2C and OT1 cells that were treated with 0.5 μM 2 was 286 and 1148, respectively, while the number of 2C and OT1 cells that were treated with 0.5 μM 21 (control) was 4767 and 2468, respectively. This is depicted as a bar-graph in FIG. 8C.

[4] = tested on: OT2 (resting) cells; assay: MLR with resting control cells, resting OT2 cells; type: cell-based, mouse; conditions: 0.5 μM, 72 h MLR with IL-7; no inhibitor 1025
Source text: as §4, §5, §6
(§9) The number of TEA and OT2 cells that were treated with 0.5 μM 2 was 1452 and 826, respectively, while the number of 2C and OT1 cells that were treated with 0.5 μM 21 was 3003 and 903, respectively. This is depicted as a bar-graph in FIG. 9C.

[5] = tested on: IL-2 secretion by 2C splenocytes stimulated by irradiated BALB/c splenocytes; assay: IL-2 levels in MLR supernatants; type: cell-based, mouse; conditions: 24, 48 and 72 h MLR; compound 2 up to 1 μM
Description: In the mixed lymphocyte reaction, stimulator cells cause responder cells to proliferate, owing to alloreactivity [Reich-Zeliger et al., 2004]. Splenocytes from 2c mice were stimulated by irradiated splenocytes from BALB/c mice in the presence of the evaluated compound at the concentrations specified. Cultures were incubated for 72 hours in 96-well plates.
Jurkat or PBMC cells were treated for 12 h with 1 μM, 0.5 μM or no inhibitor. Cells (1×10^6) were plated in 24-well plates (Nunc) and stimulated by C305 (dilution 1:500), anti-CD28 (1:100), PMA (50 ng/ml) or ionomycin (1 μM) for 12 h. Alternately, cells were stimulated for 24, 48 and 72 h in MLR. After stimulation cells were centrifuged at 130×g for 5 minutes at room temperature.
Supernatants were collected and IL-2 was assayed using the IL-2 ELISA kit (BioSource International USA, KH0022) according to the manufacturer's instructions. Absorbance was read at 450 nm in an ELISA plate reader (ELx800 BIO-TEK Instruments Inc.).
In vivo, T cells are stimulated by neighboring cells. In order to test the effect of 2 on cell-stimulated IL-2 secretion, the supernatants of splenocytes after 24, 48 and 72 h MLR were collected and analyzed for their IL-2 levels (FIG. 5C). […] At higher concentrations, no viable cells remained.

[6] = tested on: CD8+ (2C) and CD4+ (TEA) T cells; assay: MLR, double-positive CD8+1B2+ (2C) or CD4+/Va2+ (TEA) effector cells by FACS; type: cell-based, mouse; conditions: 72 h MLR
Source text: Mice used included male and female 6- to 12-week-old CB6/F1 mice, obtained from the Roscoe B. Jackson Memorial Laboratory (The Jackson Laboratory, Bar Harbor, Me., http://www.jax.org). A breeding pair of transgenic (Tg) H-2b mice expressing the T-cell antigen receptor (TCR) 1B2 from the CD8+ clone 2C with specificity for H-2Ld was kindly provided by Janko Nikolic-Zugic (Memorial Sloan-Kettering Cancer Center, New York, http://www.mskcc.org). A breeding pair of Tg H-2b mice expressing the TCR from the CD4+ clone known as TEA with specificity for I-Ead allopeptide, cross-presented by host APC and bound to I-Ab and was kindly provided by Alexander Y. Rudensky (University of Washington, Seattle). I-Ead allopeptide corresponds to the positions 52 to 68 from the alpha-chain of I-E class II molecules and is expressed in all APCs from H-2b/I-E+ strains (CB6F1-hybrid of C57BL/6 and Balb/c). C57BL/6 mice are H-2b but I-E−, whereas BALB/c are H-2d and I-E+, and therefore their F1 hybrids are H-2b/1-E+ and able to directly present antigen.
Responder 2C splenocytes were harvested, and the cell suspensions were treated with Tris-buffered ammonium chloride to remove RBC. […] On day 3, the MLR cultures were harvested, and analyzed by FACS for CD4 or CD8 levels.
FACS analysis was performed using a modified FACScan (BD Biosciences, Mountain View, Calif.). Fluorescence data were collected during one minute. […]

[7] = tested on: OT1 (resting) cells; assay: MLR with resting control cells, resting OT1 cells; type: cell-based, mouse; conditions: 0.5 μM, 72 h MLR with IL-7; no inhibitor 2459
Source text: as §4, §5, §6, §7, §8

[8] = tested on: TEA (stimulated) cells; assay: MLR with resting control cells, stimulated TEA cells; type: cell-based, mouse; conditions: 0.5 μM, 72 h MLR with IL-7; no inhibitor 3850
Source text: as §4, §5, §6, §9

Structure (SMILES)	melting point [°C]	IC50 [1] [nM]	IC50 [2] [nM]	number of 2C (stimulated) cells [3]	number of OT2 (resting) cells [4]	IL-2 levels in MLR supernatants [5]	percentage of double-positive effector cells [6]	number of OT1 (resting) cells [7]	number of TEA (stimulated) cells [8]
COc1ccc(CNc2nc(-c3cc(O)c(O)c(O)c3)nc3ccccc23)cc1 [Compound 33, 5-(4-(4-methoxybenzylamino)quinazolin-2-yl)benzene-1,2,3-triol]	> 250	3260 ± 0.49	5430 ± 0.76						
COc1cc(-c2nc(Nc3ccc(O)cc3)c3ccccc3n2)cc(OC)c1OC [Compound 4, 4-(2-(3,4,5-trimethoxyphenyl)quinazolin-4-ylamino)phenol]	> 250	300 ± 0.14	230 ± 0.04						
COc1cc(-c2nc(NCc3ccccc3)c3ccccc3n2)cc(OC)c1OC [Compound 10, N-benzyl-2-(3,4,5-trimethoxyphenyl)quinazolin-4-amine]	> 250	3250 ± 2.47	600 ± 0.14						
COc1cc(-c2nc(NCCc3c[nH]c4ccccc34)c3ccccc3n2)cc(OC)c1OC [Compound 17, N-(2-(1H-indol-3-yl)ethyl)-2-(3,4,5-trimethoxyphenyl)quinazolin-4-amine]	> 250	750 ± 0.21	700 ± 0.35						
Cc1ccc(Nc2nc(-c3cc(O)c(O)c(O)c3)nc3ccccc23)cc1 [Compound 21, 5-(4-(p-tolylamino)quinazolin-2-yl)benzene-1,2,3-triol]	> 250	850 ± 0.21	850 ± 0.21	4767	903	decreased after 72 h	no reduction was observed	2468	3003
Oc1cc(-c2nc(Nc3ccc4c(c3)OCO4)c3ccccc3n2)cc(O)c1O [Compound 37, 5-(4-(benzo[d][1,3]dioxol-5-ylamino)quinazolin-2-yl)benzene-1,2,3-triol]	> 250	5500 ± 6.36	800 ± 0.28						
OCc1ccccc1Nc1nc(-c2cc(O)c(O)c(O)c2)nc2ccccc12 [Compound 28, 5-(4-(2-(hydroxymethyl)phenylamino)quinazolin-2-yl)benzene-1,2,3-triol]	> 250	900 ± 0.14	650 ± 0.21						
